Assay results taken from patent publication US11413278B2, “Compounds and methods for promoting stress resistance” (priority 2015, dated 2022).
Like-named read-outs stand apart in the source and are kept apart here.

Columns and labels:
WI-38 cells [1] = experiment: Propidium iodide (PI) cell-death imaging upon H2O2 stress; type: cell-based, human; conditions: for Assay 7: H2O2-resistant, at 10 uM, validated by propidium iodide (PI) cell-death imaging: w/H2O2, 3 hrs/4 hrs/5 hrs, YES/NO; for cytotoxicity at 10 µM: Homo sapiens, WI-38
WI-38 cells [2] = experiment: MMS resistance assay; type: cell-based, human; conditions: for fold induction at 10 µM: Homo sapiens, 12 h, normalized ATP measurement
Outline: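 Resistance to CdCl2 or MMS stress (12 h exposure) was scored in WI-38 fibroblasts pretreated with compound at 0.25–20 μM final, five doses, technical triplicates. MMS plates had compound added 24 h before MMS, after a shift to serum-free DMEM+2% BSA. Significance came from a global variance t-test over two independent runs.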

mTOR = mTOR inhibition (RPS6 phosphorylation status), In-Cell Western; type: cell-based, human
Outline: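 Read-out is In-Cell Western near-infrared imaging of phospho-RPS6 (Ser-235/236) against total RPS6, using overnight 4° C primary staining and DyLight 680/800 secondaries. Compounds were given to WI-38 cells for 24 hrs at three doses: 5, 10 and 20 μM.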

WI-38 cells [3] = experiment: Long-term effects on cell viability (5 days, ATP; morphology, PI imaging); type: cell-based; conditions: for viability at 10 µM: Homo sapiens, WI-38, 120 h, read-out: ATP luminescence by day-5 normalized; for O = Potential toxicity / Q = Potential toxicity: human, 5 days;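 as to Luminescence signal for ATP measurement, day-2 Average: compounds at 10 µM with ATP read daily over 5 days of treatment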;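 as to Luminescence signal for ATP measurement, day-3 Average: compounds at 10 µM with ATP read daily over 5 days of treatment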;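 as to Luminescence signal for ATP measurement, day-4 Average: compounds at 10 µM with ATP read daily over 5 days of treatment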;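 as to Luminescence signal for ATP measurement, day-5 Average: compounds at 10 µM with ATP read daily over 5 days of treatment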
WI-38 cells [4] = conditions: for Percentage of propidium iodide-positive dead cells (no H2O2 stress treatment), at 10 uM: negative control 0.41% ± 0.23%
Procedure: WI-38 cells were seeded on 384-well plates for 24 hrs and then incubated with small molecules for 24 hrs. […] Images were collected on an INCell Analyzer 2000 (GE) and analyzed with the Developer software.

WI-38 cells [5] = conditions: for Assay 1: H2O2-resistant: YES/NO, if NO, possibly due to repeated freezing/thawing of stocks
[6] = H2O2 3 hrs, 10 uM, n = 6, negative control 5.44% ± 0.79%, read-out: Percentage of propidium iodide-positive dead cells (under H2O2 stress treatment), 3 hrs
[7] = H2O2 4 hrs, 10 uM, n = 6, negative control 16.81% ± 1.42%, read-out: Percentage of propidium iodide-positive dead cells (under H2O2 stress treatment), 4 hrs
[8] = H2O2 5 hrs, 10 uM, n = 6, negative control 22.50% ± 1.53%, read-out: Percentage of propidium iodide-positive dead cells (under H2O2 stress treatment), 5 hrs
[9] = pre-treatment at 10 uM, 3.5 hours of H2O2, DMSO control 27.4% ± 6.5%, */**/*** = reduced by one/two/three standard deviations, read-out: Percentage of propidium iodide-positive dead cells (under H2O2 stress treatment), at 10 uM
[10] = score in summary of 38 core set hits
[11] = WI-38 cells, 10 μM, (*) = compromised ability to protect cells from H2O2, could be due to stability issue
[12] = asterisks indicate the loss of the ability to protect cells from H2O2 over time
[13] = derived from dose response curves, 0.6-20 uM, H2O2-resistance of WI-38 cells
[14] = read-out: Est. ED50, dose response 0.6-20 μM, H2O2-resistance

Row | SMILES | Assay 7: H2O2-resistant, at 10 uM, validated by propidium iodide (PI) cell-death imaging (WI-38 cells [1]; 10 uM) | cytotoxicity at 10 µM (WI-38 cells [1]; [6]) | cytotoxicity at 10 µM (WI-38 cells [1]; [7]) | cytotoxicity at 10 µM (WI-38 cells [1]; [8]) | cytotoxicity at 10 µM (WI-38 cells [1]; [9]) | B = MMS resistant (WI-38 cells [2]; [10]) | B = MMS resistant (WI-38 cells [2]; summary score) | D = Triple resistant (WI-38 cells [2]; summary score) | G = mTOR down-regulation (mTOR; 2-point score) | G = mTOR down-regulation (mTOR; summary score) | O = Potential toxicity (WI-38 cells [3]; 10 μM) | Q = Potential toxicity (WI-38 cells [3]; 10 μM) | Percentage of propidium iodide-positive dead cells (no H2O2 stress treatment), at 10 uM (WI-38 cells [4]) | H2O2-resistant (WI-38 cells [5]; [11]) | Assay 1: H2O2-resistant (WI-38 cells [5]) | H2O2-resistant (WI-38 cells [5]; [12]) | EC50 (WI-38 cells [5]; [13]) | EC50 (WI-38 cells [5]; [14]) | also measured
1 | COc1cccc(/C=C2\CN(C)C/C(=C\c3cccc(OC)c3OC)C2=O)c1OC [O23] | YES | 5.65% | 4.76% | 8% | 10.2% | 0 | 0 | 0 | 0 | 0 | 1 | 1 | 2.61% ± 1.37%, | YES (*) | YES | YES (*) | 4.9 µM | 4.9 µM | fold induction at 10 µM (WI-38 cells [2]; Exp. 1, WI-38 cells, read-out: Exp. 1, under MMS stress treatment, at 10 uM (fold change)): 1.04; fold induction at 10 µM (WI-38 cells [2]; Exp. 2, WI-38 cells, read-out: Exp. 2, under MMS stress treatment, at 10 uM (fold change)): 1.28; Luminescence signal for ATP measurement, day-1 Average (WI-38 cells [3]; Batch 1, 10 μM, day-1, n = 6, day-0 luminescence = 320956 ± 24708): 329880; Luminescence signal for ATP measurement, day-2 Average (WI-38 cells [3]; Batch 1, 10 μM, day-2, n = 6, day-0 luminescence = 320956 ± 24708): 149226; Luminescence signal for ATP measurement, day-3 Average (WI-38 cells [3]; Batch 1, 10 μM, day-3, n = 6, day-0 luminescence = 320956 ± 24708): 52831; Luminescence signal for ATP measurement, day-4 Average (WI-38 cells [3]; Batch 1, 10 μM, day-4, n = 6, day-0 luminescence = 320956 ± 24708): 53125; Luminescence signal for ATP measurement, day-5 Average (WI-38 cells [3]; Batch 1, 10 μM, day-5, n = 6, day-0 luminescence = 320956 ± 24708): 52771; viability at 10 µM (WI-38 cells [3]; Batch 1, 10 μM, day-5, DMSO ctrl = 100.0%): 5.1%; PI cell-death imaging without H2O2 (indicating potential toxicity) (WI-38 cells [4]; Assay 8(k), without H2O2, at 10 uM): YES; PI-positive dead cells under normal conditions (WI-38 cells [4]; WI-38, no H2O2, control 0.4±0.2%): 2.6%±1.4%; No H2O2 stress treatment, at 10 uM (fold change) (WI-38 cells [5]; WI-38 cells, no H2O2 stress, 10 uM, normalized ATP measurement): 0.76 fold change
2 | Oc1ccccc1-c1noc(-c2ccccc2O)n1 [O27] | YES | 0.55% | 0.82% | 1.07% | 0.5% | 0 | 0 | 0 | 2 | 2 | 0 | 1 | 0.50% ± 0.17%, | YES | YES | YES | 12.7 µM | 12.7 µM | Assay 5: Triple resistant (WI-38 cells [2]; YES/NO, H2O2, cadmium and MMS): YES; mTOR inhibition (p-RPS6/RPS6), qualitative (mTOR): consistently reduced the ratios; mTOR down-regulation by p-RPS6 assays (mTOR; Assay 14(q), at 5 uM, 10 uM & 20 uM): YES; Luminescence signal for ATP measurement, day-1 Average (WI-38 cells [3]): 431303; Luminescence signal for ATP measurement, day-2 Average (WI-38 cells [3]): 437195; Luminescence signal for ATP measurement, day-3 Average (WI-38 cells [3]): 517210; Luminescence signal for ATP measurement, day-4 Average (WI-38 cells [3]): 634360; Luminescence signal for ATP measurement, day-5 Average (WI-38 cells [3]): 587798; viability at 10 µM (WI-38 cells [3]): 57.2%
